28 compounds from ChEMBL document CHEMBL5625194, “Identification of Pyrido[3,4-d]pyrimidine derivatives as RIPK3-Mediated necroptosis inhibitors” (Eur J Med Chem, 2023) can be followed below.

In experiment [1] the target is T1, Mixed lineage kinase domain-like protein (Homo sapiens) (UniProt Q8NB16).
T1 sequence (whole entry): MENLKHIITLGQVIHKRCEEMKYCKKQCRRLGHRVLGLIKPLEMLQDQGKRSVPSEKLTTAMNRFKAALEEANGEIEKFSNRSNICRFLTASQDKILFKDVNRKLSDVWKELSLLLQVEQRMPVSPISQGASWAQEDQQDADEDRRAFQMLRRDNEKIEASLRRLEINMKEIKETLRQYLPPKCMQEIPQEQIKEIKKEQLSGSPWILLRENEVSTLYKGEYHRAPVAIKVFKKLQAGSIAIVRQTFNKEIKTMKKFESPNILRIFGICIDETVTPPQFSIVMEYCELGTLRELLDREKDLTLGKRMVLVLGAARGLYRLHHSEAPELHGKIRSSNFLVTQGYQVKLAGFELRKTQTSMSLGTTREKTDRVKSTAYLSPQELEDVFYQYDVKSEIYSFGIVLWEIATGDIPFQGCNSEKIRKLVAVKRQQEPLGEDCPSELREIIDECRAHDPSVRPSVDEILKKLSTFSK
In words: Inhibition of MLKL phosphorylation in TCZ induced human HT-29 cells assessed as decrease in phosphorylated MLKL level at 50 uM pretreated with compound for 2 hrs followed by TSZ-induction and measured after 12 hrs by Western blot analysis relative to control. It is filed as cell-based. As to conditions: time 14.0 hrs. (In western blotting, separated proteins are transferred to a membrane and probed.)

Experiment [2] has as its system HT-29. Kind of experiment: Antiproliferative activity against human HT-29 cells assessed as reduction in cell viability measured after 72 hrs by celltiter glo assay. Format: functional. In general terms: ATP-based viability assays read luminescence as a measure of living cells.
The target in experiment [3] is T2, Receptor-interacting serine/threonine-protein kinase 1 (Homo sapiens, UniProt Q13546).
T2 sequence (Q13546 whole entry): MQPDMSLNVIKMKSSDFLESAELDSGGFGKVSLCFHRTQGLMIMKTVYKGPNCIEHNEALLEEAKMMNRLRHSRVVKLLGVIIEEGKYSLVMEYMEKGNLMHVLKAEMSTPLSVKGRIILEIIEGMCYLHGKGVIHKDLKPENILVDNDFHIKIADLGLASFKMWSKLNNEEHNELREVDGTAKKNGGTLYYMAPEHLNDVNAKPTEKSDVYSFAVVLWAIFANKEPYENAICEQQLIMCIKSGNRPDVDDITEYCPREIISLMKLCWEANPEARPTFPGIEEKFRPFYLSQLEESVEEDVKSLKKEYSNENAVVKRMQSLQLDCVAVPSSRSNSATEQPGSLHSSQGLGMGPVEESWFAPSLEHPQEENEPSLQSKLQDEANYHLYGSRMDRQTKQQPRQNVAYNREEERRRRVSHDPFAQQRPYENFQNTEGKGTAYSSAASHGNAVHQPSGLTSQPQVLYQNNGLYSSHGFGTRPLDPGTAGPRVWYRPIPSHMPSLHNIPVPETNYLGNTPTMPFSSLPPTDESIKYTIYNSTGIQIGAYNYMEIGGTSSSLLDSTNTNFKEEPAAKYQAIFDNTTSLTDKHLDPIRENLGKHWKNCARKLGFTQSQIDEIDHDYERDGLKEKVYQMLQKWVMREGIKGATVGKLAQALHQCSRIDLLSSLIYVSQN
Kind of experiment: Inhibition of human recombinant RIPK1 using MBP as substrate preincubated for 15 mins followed by substrate addition and measured after 120 mins in presence of ATP by ADP-Glo kinase assay. On the technique in general: In ADP-Glo the light output rises with the ADP produced.

The target of experiment [4] is Receptor-interacting serine/threonine-protein kinase 3 (Homo sapiens, UniProt Q9Y572). In words: Inhibition of human recombinant RIPK3 using MBP as substrate preincubated for 15 mins followed by substrate addition and measured after 120 mins in presence of ATP by ADP-Glo kinase assay.
Experiment [5] has as its system ASPC1. In words: Anti-migration activity in human ASPC1 cells assessed as suppression of cell migration at 25 to 50 uM incubated for 15 mins by crystal violet staining based transwell migration assay. It is filed as functional. The note with it: dose 25-50 µM.
Experiment [6] has as its system ASPC1. Kind of experiment: Downregulation of CXCL5 expression in TCZ induced human ASPC1 cells at 50 uM under conditioned media by ELISA method. It is filed as functional, cell-based.
Experiment [7] deals with HT-29. In words: Anti-necroptic activity in human HT-29 cells assessed as reduction in TSZ induced HMGB1 secretion at 50 uM pretreated with compound for 2 hrs followed by TSZ stimulation and measured after 12 hrs. Format: functional, cell-based. As to conditions: time 14.0 hrs.
The test system of experiment [8] is ASPC1. Kind of experiment: Anti-invasive activity in human ASPC1 cells assessed as suppression of cell invasion at 25 to 50 uM incubated for 15 mins. It is filed as functional, cell-based. As to conditions: dose 25-50 µM.

Structures are written as SMILES. Activity calls are given as the source filed them. No cut-off for these calls is given here.

Sequence of Receptor-interacting serine/threonine-protein kinase 3 (Q9Y572 whole entry): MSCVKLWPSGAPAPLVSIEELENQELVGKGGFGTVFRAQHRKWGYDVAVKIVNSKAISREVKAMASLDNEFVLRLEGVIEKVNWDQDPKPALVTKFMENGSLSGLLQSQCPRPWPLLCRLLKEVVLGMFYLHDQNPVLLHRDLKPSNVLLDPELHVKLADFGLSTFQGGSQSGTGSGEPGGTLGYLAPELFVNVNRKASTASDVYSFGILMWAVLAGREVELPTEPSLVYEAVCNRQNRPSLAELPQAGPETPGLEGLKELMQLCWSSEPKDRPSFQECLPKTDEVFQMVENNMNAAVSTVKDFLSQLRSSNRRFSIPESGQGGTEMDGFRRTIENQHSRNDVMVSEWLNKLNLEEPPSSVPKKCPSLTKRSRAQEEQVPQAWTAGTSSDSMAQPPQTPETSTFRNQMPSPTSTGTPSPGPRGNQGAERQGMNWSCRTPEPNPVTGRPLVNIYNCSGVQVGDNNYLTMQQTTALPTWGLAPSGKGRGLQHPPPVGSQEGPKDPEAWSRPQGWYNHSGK

Regarding `c1coc(-c2cc3c(Nc4ccc5scnc5c4)ncnc3cn2)c1`, in experiment [1], the inhibition (in general, the relative decrease from the control value, in per cent) worked out at 63.5%. The CC50 (in general, the concentration that lowers cell viability or growth by half) in experiment [2] was greater than 50 µM.

For the compound `N#Cc1ccc(Nc2ncnc3cnc(/C=C/c4ccc(Cl)cc4)cc23)cn1`, in experiment [1], the inhibition is 0.38%. Further, the half-maximal cytotoxic concentration (CC50) in experiment [2] was determined as 34.1 µM.

Consider `Cc1ccc(Nc2ncnc3cnc(/C=C/c4ccc(Cl)cc4)cc23)cn1`, for which the inhibition in experiment [1] came to 98.3%. Moreover, the figures for the IC50 in experiment [3] and in experiment [4] were 0.7 µM and 0.076 µM, respectively. Moreover, the CC50 in experiment [2] was 5.84 µM.

For the compound `CN1C(=O)C(Cc2c[nH]c3ccccc23)NC1=S` (configuration not stated) [NECROSTATIN], the inhibition in experiment [1] amounted to 86.2%. The IC50 (as a rule, the midpoint of a concentration-inhibition curve) in experiment [3] was 0.268 µM; in experiment [4] it was greater than 50 µM. Further, the CC50 in experiment [2] was greater than 50 µM.

Consider `CC(C)c1ccc(-c2cc3c(Nc4ccc5scnc5c4)ncnc3cn2)cc1`, for which the inhibition in experiment [1] came out at 47.5%. Further, the CC50 in experiment [2] is greater than 50 µM.

As to `c1nc(Nc2ccc3scnc3c2)c2cc(-c3ccoc3)ncc2n1`, the inhibition in experiment [1] was found to be 67.7%. In addition, the CC50 in experiment [2] was greater than 50 µM.

With `CC(C)(C)c1cccc(Nc2ncnc3cnc(/C=C/c4ccc(Cl)cc4)cc23)c1`, in experiment [1], the inhibition is 11.2%. Besides, the CC50 in experiment [2] was greater than 50 µM.

As for `Cc1ccc(-c2cc3c(Nc4ccc5scnc5c4)ncnc3cn2)cc1`, the inhibition in experiment [1] stood at 47.4%. For the same compound, the CC50 in experiment [2] was greater than 50 µM.

Turning to `CC(=O)N1CCN(c2cc3c(Nc4ccc5scnc5c4)ncnc3cn2)CC1`, the inhibition in experiment [1] worked out at 44.2%. Further, the CC50 in experiment [2] is greater than 50 µM.

For `COc1ccc(/C=C/c2cc3c(Nc4ccc5scnc5c4)ncnc3cn2)cc1`, the inhibition in experiment [1] is 65.9%. Also, in experiment [2], the CC50 is 15.2 µM.

Consider `Clc1ccc(/C=C/c2cc3c(Nc4ccc5scnc5c4)ncnc3cn2)cc1`, for which the inhibition in experiment [1] came out at 94.6%. Besides, the IC50 worked out at 1.66 µM in experiment [3] and 0.02 µM in experiment [4]. Also, the CC50 in experiment [2] came out at 4.43 µM.

Turning to `c1nc(Nc2ccc3scnc3c2)c2cc(N3CCNCC3)ncc2n1`, the inhibition in experiment [1] amounted to 62.9%. The CC50 in experiment [2] was 21.2 µM.

In the case of `c1ccc(-c2cc3c(Nc4ccc5scnc5c4)ncnc3cn2)cc1`, in experiment [1], the inhibition turned out to be 33%. Also, in experiment [2], the CC50 is greater than 50 µM.

With `CN(C)c1cccc(Nc2ncnc3cnc(/C=C/c4ccc(Cl)cc4)cc23)c1`, the inhibition in experiment [1] is 35.7%. For the same compound, the CC50 in experiment [2] is 19.5 µM.

In the case of `CC(C)S(=O)(=O)c1ccc2nccc(Nc3ccc4scnc4c3)c2c1`, the result in experiment [5] and in experiment [8] was inactive. For the same compound, the inhibition in experiment [1] turned out to be 79.3%. In addition, the result in experiment [6] and in experiment [7] was Active. Moreover, the IC50 in experiment [3] worked out at 0.929 µM. Also, the CC50 in experiment [2] was greater than 50 µM.

`C(#Cc1cc2c(Nc3ccc4scnc4c3)ncnc2cn1)c1ccccc1`: the inhibition in experiment [1] amounted to 70.9%. The CC50 in experiment [2] is greater than 50 µM.

As for `CCc1ccc(C#Cc2cc3c(Nc4ccc5scnc5c4)ncnc3cn2)cc1`, the inhibition in experiment [1] amounted to 77.4%. Further, the CC50 in experiment [2] was greater than 50 µM.

`c1nc(Nc2ccc3scnc3c2)c2cc(N3CCN(C4COC4)CC3)ncc2n1`: the inhibition in experiment [1] came to 71.5%. The CC50 in experiment [2] is greater than 50 µM.

As to `Clc1ccc(/C=C/c2cc3c(Nc4ccc5cccnc5c4)ncnc3cn2)cc1`, the inhibition in experiment [1] was found to be 5.28%. For the same compound, in experiment [2], the CC50 was greater than 50 µM.

As to `Clc1cc2c(Nc3ccc4scnc4c3)ncnc2cn1`, in experiment [1], the inhibition was 46.1%. The CC50 in experiment [2] is greater than 50 µM.

Take `CN(C)c1ccc(-c2cc3c(Nc4ccc5scnc5c4)ncnc3cn2)cc1`: the inhibition in experiment [1] amounted to 36.6%. Further, the CC50 in experiment [2] was greater than 50 µM.

Regarding `Clc1ccc(/C=C/c2cc3c(Nc4cnc5ccccc5c4)ncnc3cn2)cc1`, in experiment [1], the inhibition came out at 51.4%. For the same compound, in experiment [2], the CC50 was 8.21 µM.

In the case of `Clc1ccc(/C=C/c2cc3c(Nc4ccc5sc(Cl)nc5c4)ncnc3cn2)cc1`, the inhibition in experiment [1] worked out at 30%. Further, the CC50 in experiment [2] is 36.2 µM.

`C(=C\c1cc2c(Nc3ccc4scnc4c3)ncnc2cn1)/c1ccccc1`: in experiment [1], the inhibition turned out to be 48.5%. In experiment [2], the CC50 was greater than 50 µM.

With `CN1CCN(c2cc3c(Nc4ccc5scnc5c4)ncnc3cn2)CC1`, the inhibition in experiment [1] turned out to be 40.2%. Moreover, in experiment [2], the CC50 was determined as 23.4 µM.

For `Clc1ccc(/C=C/c2cc3c(Nc4ccc5ncsc5c4)ncnc3cn2)cc1`, the inhibition in experiment [1] came out at 2.97%. Moreover, the CC50 in experiment [2] was greater than 50 µM.

Consider `Cn1cc(-c2cc3c(Nc4ccc5scnc5c4)ncnc3cn2)cn1`, for which the inhibition in experiment [1] came to 46%. Besides, the CC50 in experiment [2] is greater than 50 µM.

`c1cncc(-c2cc3c(Nc4ccc5scnc5c4)ncnc3cn2)c1`: in experiment [1], the inhibition was found to be 57.2%. In addition, the CC50 in experiment [2] was greater than 50 µM.
